For assay [1], the system named is P. falciparum 3D7 or K1 strains. The assay can be described thus: P. falciparum growth inhibition assays of VS hits. Type of assay: cell-based, Plasmodium falciparum. The settings on record: against either 3D7 or K1 strains, most potent VS hit.
For another assay, the system named is P. falciparum 3D7 strain. The assay can be described thus: P. falciparum growth inhibition assay. It counts as cell-based. To be noted: Plasmodium falciparum, 3D7, 72 h, read-out: consensus EC50.

The EC50 is the concentration at which the effect is half-maximal.

Molecule `C=CC1CN2CCC1CC2C(OC(=O)C1CC1)c1ccnc2ccccc12` (stereo not drawn) [SJ000565000] came in with an EC50 in assay [1] of 95.6 nM.
Regarding `CCN(CC)CCCC(C)Nc1ccnc2cc(Cl)ccc12` (stereo not drawn) [chloroquine], in the assay on P. falciparum 3D7 strain, the 50% effective concentration (EC50) is 26.8 nM.
Still for that read-out and setting: for `OC(c1cc(C(F)(F)F)nc2c(C(F)(F)F)cccc12)C1CCCCN1` (stereo not drawn) [mefloquine] the value was 39.8 nM.

For the origin of these results see paper PMC3644566 (Journal of chemical information and modeling, 2013).
